How the values were obtained:
Format in all cases: biochemical
caspase-7 = target: T1, caspase-7 (Homo sapiens, UniProt P55210); test: Caspase-7 enzymatic assay with divalent R110 substrate; settings: caspase-7, (DEVD)2R110 substrate
T1 construct: as the catalytic domain consisting of large p20 and small p10 subunits without prodomain; made in house
T1 sequence (P55210 24-198 limits assumed): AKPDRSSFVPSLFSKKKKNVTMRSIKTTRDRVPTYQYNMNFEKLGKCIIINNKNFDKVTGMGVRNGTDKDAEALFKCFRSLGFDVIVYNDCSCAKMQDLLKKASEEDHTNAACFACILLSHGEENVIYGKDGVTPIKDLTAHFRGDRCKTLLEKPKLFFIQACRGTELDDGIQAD
T1 sequence (P55210 207-303 limits assumed): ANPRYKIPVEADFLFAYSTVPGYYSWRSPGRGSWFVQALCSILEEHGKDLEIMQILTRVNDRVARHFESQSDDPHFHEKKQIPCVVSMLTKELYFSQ
Method: The in vitro enzymatic caspase assays utilize synthetic tetrapeptide substrates labeled with the fluorophores Rhodamine110 (R110) or 7-amino-4-methylcoumarin (AMC) at the P1 aspartic acid (Asp) residue. All assays were performed in 384-well plates in 12 µL reaction volume consisting of enzyme, substrate and indicated concentration of inhibitor or DMSO in assay buffer (50 mM HEPES [pH 7.0], 25 mM MgSO4, 0.5 mM EGTA, 5 mM Glutathione (GSH), 0.01% Triton X-100 containing 0.1% Bovine Gamma Globulin (BGG)). All inhibitors were serially diluted in 100% DMSO prior to dilution in assay buffer and transfer to assay plate. DMSO was diluted into assay buffer similarly for blank wells (no enzyme or compound) and final DMSO concentration was 1%. […] Unless otherwise indicated, substrate concentration was within 3-fold of the determined Kmapparent (5 µM (Ac-VEID)2R110 [Kmapp = 8 µM]; 5 µM (Ac-DEVD)2R110 [Kmapp = 8 µM]; 25 µM (Ac-IETD)2R110 [Kmapp = 70 µM]; 25 µM (Ac-WEHD)2R110 [Kmapp = 70 µM]; 10µM Ac-VEID-AMC [Kmapp = 16µM]; 5 µM Ac-VEID-R110 [Kmapp = 8 µM]). […] For all caspase enzymatic assays, the reaction plate was incubated at room temperature for 40 minutes and then read on Envision (Perkin Elmer) fluorescent plate reader at excitation/emission wavelengths of 485/535 nm (R110) or 350/450 nm (AMC). […]

caspase-3 = target: T2, caspase-3 (Homo sapiens, UniProt P42574); test: Caspase-3 enzymatic assay with divalent R110 substrates
T2 construct: as the catalytic domain consisting of large p20 and small p10 subunits without prodomain; made in house
T2 sequence (P42574 29-175 limits assumed): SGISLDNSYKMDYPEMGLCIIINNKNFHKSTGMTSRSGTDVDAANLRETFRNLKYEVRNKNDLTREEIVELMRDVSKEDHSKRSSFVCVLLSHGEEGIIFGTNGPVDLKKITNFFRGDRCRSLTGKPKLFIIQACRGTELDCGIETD
T2 sequence (P42574 176-277 limits assumed): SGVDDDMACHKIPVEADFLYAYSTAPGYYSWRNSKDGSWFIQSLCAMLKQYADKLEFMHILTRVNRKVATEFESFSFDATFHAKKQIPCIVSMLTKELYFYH
Method: The in vitro enzymatic caspase assays utilize synthetic tetrapeptide substrates labeled with the fluorophores Rhodamine110 (R110) or 7-amino-4-methylcoumarin (AMC) at the P1 aspartic acid (Asp) residue. All assays were performed in 384-well plates in 12 µL reaction volume consisting of enzyme, substrate and indicated concentration of inhibitor or DMSO in assay buffer (50 mM HEPES [pH 7.0], 25 mM MgSO4, 0.5 mM EGTA, 5 mM Glutathione (GSH), 0.01% Triton X-100 containing 0.1% Bovine Gamma Globulin (BGG)). All inhibitors were serially diluted in 100% DMSO prior to dilution in assay buffer and transfer to assay plate. DMSO was diluted into assay buffer similarly for blank wells (no enzyme or compound) and final DMSO concentration was 1%. The concentration of caspase-6 used in enzymatic reactions typically varied between 1–10 nM depending on substrate used. Unless otherwise indicated, substrate concentration was within 3-fold of the determined Kmapparent (5 µM (Ac-VEID)2R110 [Kmapp = 8 µM]; 5 µM (Ac-DEVD)2R110 [Kmapp = 8 µM]; 25 µM (Ac-IETD)2R110 [Kmapp = 70 µM]; 25 µM (Ac-WEHD)2R110 [Kmapp = 70 µM]; 10µM Ac-VEID-AMC [Kmapp = 16µM]; 5 µM Ac-VEID-R110 [Kmapp = 8 µM]). The concentration of substrate utilized in selectivity assays for each caspase isoform was also held as close to Kmapparent as reasonably achievable (Table S1). Caspases-3 and -7 were expressed and purified at Genentech as the catalytic domain consisting of large p20 and small p10 subunits without prodomain. For all caspase enzymatic assays, the reaction plate was incubated at room temperature for 40 minutes and then read on Envision (Perkin Elmer) fluorescent plate reader at excitation/emission wavelengths of 485/535 nm (R110) or 350/450 nm (AMC).
The endpoint fluorescent emission (RFU) in each well was plotted as a function of inhibitor concentration and the 50% inhibition (IC50) values were determined using a nonlinear least squares fit of the data to a four parameter equation using Prism 5.0 software (GraphPad Software, San Diego, CA). […]

caspase-6 = target: T3, caspase-6 (Homo sapiens, UniProt P55212); test: Cleavage of Lamin A by purified human caspase-6 (western blot); settings: 100 µM concentration
T3 construct: Residues 24-179 and 194-293 from caspase-6 cDNA (Origene) were cloned into pET-24b and pET-23b vectors; 6x histidine tag (C); made in house; host or cells: E. coli BL21 (DE3) pLysS
T3 sequence (P55212 24-179): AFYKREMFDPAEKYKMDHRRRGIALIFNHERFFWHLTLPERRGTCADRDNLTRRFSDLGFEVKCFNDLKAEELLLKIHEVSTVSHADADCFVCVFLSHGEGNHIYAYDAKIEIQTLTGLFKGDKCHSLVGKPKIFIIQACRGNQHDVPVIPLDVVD
T3 sequence (P55212 194-293): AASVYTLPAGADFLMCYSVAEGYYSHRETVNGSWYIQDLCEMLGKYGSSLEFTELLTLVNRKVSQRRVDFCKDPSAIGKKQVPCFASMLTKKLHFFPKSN
Method: The assay to monitor cleavage of Lamin A by purified human caspase-6 is described in Experimental Procedures S1.
Cleavage of Lamin A by purified human Caspase-6: Recombinant caspase-6 was prepared at 6.6 nM final concentration in assay buffer (40 mM HEPES [pH 7.2], 100 mM NaCl, 1 mM EDTA, 2 mM DTT, 0.1% CHAPS, 3% DMSO), and pre-incubated at 37 °C with increasing concentrations (as indicated) of the compound to be assayed. After 30 minutes, GST-tagged Lamin A substrate (Abnova, Cat# H00004000-P01) was added to the reaction mix at a final concentration of 0.33 µM and the incubation was continued for 2 h at 37 °C. Samples were boiled for 5 min to terminate the proteolytic cleavage reaction before they were resolved by SDS-PAGE (10-20% Tris-glycine gel) and transferred to nitrocellulose. The blot was probed with mouse anti-Lamin A antibody (Abnova # H00004000-B01P) and detected with IRDye800 anti-mouse antibody (LI-COR #926-32210). […] Imaging was done on the LI-COR Odyssey® Infrared Imaging System using the 800 nm channel.

SMILES: COc1ccc(-c2cc(C(=O)N[C@@H](CO)Cc3cccc(C#N)c3)co2)cc1OC [Compound 3]
- IC50 (caspase-7): > 100 µM
- IC50 (caspase-3; caspase-3, (DEVD)2R110 substrate): > 100 µM
- IC50 (caspase-3; caspase-3, (VEID)2R110 substrate): > 100 µM
- inhibition of caspase-6 cleavage of recombinant Lamin A (caspase-6): did not inhibit
